Test results from US20070191336A1 (priority 2003, published 2007).

Molecular target: T1, phospho p-38 alpha kinase (Homo sapiens, UniProt Q16539)
T1 construct: purchased Panvera
Assay: P-38 alpha kinase assay (spectrophotometric, pyruvate kinase/lactate dehydrogenase coupled)
Format: biochemical
Conditions: Table 3; at 10 uM
Description: In this assay, the oxidation of NADH was continuously measured spectrophometrically. […] The reaction was initiated by adding ATP. The absorption at 340 nm was monitored continuously for up to 4 hours at 30° C. on Polarstar Optima plate reader (BMG). The kinase activity (reaction rate) was calculated from the slope at the time frame from 1.5 h to 2 h.
For inhibition determinations, test compounds were incubated with the reaction mixture for ˜5 min before adding ATP to start the reaction. […] IC50 values were calculated from a series of % inhibition values determined at a range of concentrations of each inhibitor using Prism to process the data and fit inhibition curves. Generally, the rates obtained at the time frame of 1.5 h to 2 h were used for these calculations.

T1 sequence (Q16539 whole entry): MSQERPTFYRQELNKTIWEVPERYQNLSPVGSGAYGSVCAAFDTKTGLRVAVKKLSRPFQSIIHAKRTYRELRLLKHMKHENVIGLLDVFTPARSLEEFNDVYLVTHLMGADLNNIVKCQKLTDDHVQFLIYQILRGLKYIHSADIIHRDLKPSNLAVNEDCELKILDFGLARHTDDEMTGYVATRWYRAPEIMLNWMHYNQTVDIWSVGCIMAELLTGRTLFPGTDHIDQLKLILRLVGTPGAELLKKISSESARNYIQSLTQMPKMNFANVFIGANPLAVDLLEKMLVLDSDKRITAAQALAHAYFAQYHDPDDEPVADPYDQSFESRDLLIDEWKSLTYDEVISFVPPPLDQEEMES

Row | SMILES | % Inhibition @ concentration [% @ 10]
1 | CC(C)c1cc(NC(=O)Nc2ccc(Cl)cc2)n(-c2cccc(CCC(=O)O)c2)n1 [Example 533, 3-(3-(5-(3-(4-chlorophenyl)ureido)-3-isopropyl-1H-pyrazol-1-yl)phenyl)propanoic acid] | 39

Same assay, conditions: Table 3; rates from […] to 2 h time frame

Row | SMILES | IC50 [µM]
2 | COc1cccc(NC(=O)Nc2cc(-c3ccccc3)nn2-c2cccc(OC)c2)c1 [Example 334, 1-(3-methoxyphenyl)-3-(1-(3-methoxyphenyl)-3-phenyl-1H-pyrazol-5-yl)urea] | 2.2
3 | CC(C)(C)c1cc(NC(=O)Nc2ccc(Cl)cc2)n(-c2cccc(Cn3c(=O)[nH]n(-c4ccccc4)c3=O)c2)n1 [Example 495, 1-(3-t-butyl-1-{3-[(3,5-dioxo-1-phenyl-1,2,4-triazolidin-4-yl)methyl]phenyl}-1H-pyrazol-5-yl)-3-(4-chlorophenyl)urea] | 0.25
4 | COc1cccc(NC(=O)Nc2cc(C(C)(C)C)nn2-c2cccc(CN)c2)c1 [Example 388, 1-{1-[3-(aminomethyl)phenyl]-3-t-butyl-1H-pyrazol-5-yl}-3-(3-methoxy-phenyl)urea] | 1.65
5 | COc1cccc(-n2nc(C(F)(F)F)cc2NC(=O)Nc2cccc3ccccc23)c1 [Example 342, 1-(3-(trifluoromethyl)-1-(3-methoxyphenyl)-1H-pyrazol-5-yl)-3-(naphthalen-1-yl)urea] | 1
6 | CC(C)(C)c1cc(NC(=O)Nc2cccc(Cl)c2Cl)n(-c2cccc(C(C)(C)O)c2)n1 [Example 476, 1-{3-t-butyl-1-[3-(2-hydroxypropan-2-yl)phenyl]-1H-pyrazol-5-yl}-3-(2,3-dichlorophenyl)urea] | 0.024
7 | COc1cccc(-n2nc(C(C)(C)C)cc2NC(=O)Nc2ccccc2F)c1 [Example 344, 1-[3-t-butyl-1-(3-methoxy-phenyl)-1H-pyrazol-5-yl]-3-(2-fluorophenyl)urea] | 0.18
8 | CC(C)(C)c1cc(NC(=O)Nc2cccc(Cl)c2Cl)n(-c2ccc(C(=O)O)cc2)n1 [Example 468, 4-{3-t-butyl-5-[3-(2,3-dichlorophenyl)ureido]-1H-pyrazol-1-yl}benzoic acid] | 0.0086
9 | CCOC(=O)C(C)Cc1ccc(-n2nc(C(C)(C)C)cc2NC(=O)Nc2ccc(Cl)cc2)cc1 (stereo not shown) [Example 429, ethyl 3-(4-{3-t-butyl-5-[3-(4-chlorophenyl)ureido]-1H-pyrazol-1-yl}phenyl)-2-methylpropanoate] | 1.07
10 | CC(C)(C)c1cc(NC(=O)Nc2ccc(Cl)cc2)n(-c2cccc(CN3C(=O)C(=O)N(c4ccccc4)C3=O)c2)n1 [Example 494, 1-(3-t-butyl-1-(3-[(2,4,5-trioxo-3-phenylimidazolidin-1-yl)methyl]phenyl}-1H-pyrazol-5-yl)-3-(4-chlorophenyl)urea] | 0.67
11 | CC(O)c1ccc(-n2nc(C(C)(C)C)cc2NC(=O)Nc2cccc3ccccc23)cc1 (stereo not shown) [Example 463, 1-{3-t-butyl-1-[4-(1-hydroxyethyl)phenyl]-1H-pyrazol-5-yl}-3-(naphthalen-1-yl)urea] | 0.056
12 | CC(C)(C)c1cc(NC(=O)Nc2cccc(F)c2F)n(-c2ccc(CC(=O)O)cc2)n1 [Example 307, 2-(4-(3-t-butyl-5-(3-(2,3-difluorophenyl)ureido)-1H-pyrazol-1-yl)-phenyl)acetic acid] | 0.049
13 | CC(C)(C)c1cc(NC(=O)Nc2ccc3c(c2)OCO3)n(-c2cccc(CO)c2)n1 [Example 397, 1-(benzo[d][1,3]dioxol-5-yl)-3-(3-t-butyl-1-(3-(hydroxymethyl)phenyl)-1H -pyrazol-5-yl)urea] | 0.04
14 | Cn1[nH]c(=O)n(Cc2cccc(-n3nc(C(C)(C)C)cc3NC(=O)Nc3cccc(Cl)c3Cl)c2)c1=O [Example 511, 1-{5-t-butyl-2-[3-(1-methyl-3,5-dioxo-[1,2,4]triazolidin-4-ylmethyl)-phenyl]-2H-pyrazol-3-yl}-3-(2,3-dichloro-phenyl)-urea] | 0.024
15 | CC(C)(C)c1cc(NC(=O)Nc2ccccc2)n(-c2ccc(O)cc2)n1 [Example 522, 1-(3-t-butyl-1-(4-hydroxyphenyl)-1H-pyrazol-5-yl)-3-phenylurea] | 0.78
16 | CC(C)(C)c1cc(NC(=O)Nc2cccc(Br)c2)n(-c2cccc(CO)c2)n1 [Example 407, 1-{3-t-butyl-1-[3-(hydroxymethyl)phenyl]-1H-pyrazol-5-yl}-3-(3-bromophenyl)urea] | 0.0103
17 | CC(C)(C)c1cc(NC(=O)Nc2ccccc2F)n(-c2cccc(CC(N)=O)c2)n1 [Example 352, 1-{1-[3-(2-amino-2-oxoethyl)phenyl]-3-t-butyl-1H-pyrazol-5-yl}-3-(2-fluorophenyl)urea] | 0.043
18 | O=C(Nc1cccc(Cl)c1Cl)Nc1cc(-c2ccccc2)nn1-c1cccc(CO)c1 [Example 459, 1-{3-phenyl-1-[3-(hydroxymethyl)phenyl]-1H-pyrazol-5-yl}-3-(2,3-dichlorophenyl)urea] | 0.02
19 | C#CC(O)c1ccc(-n2nc(C(C)(C)C)cc2NC(=O)Nc2cccc3ccccc23)cc1 (stereo not shown) [Example 464, 1-{3-t-butyl-1-[4-(1-hydroxyprop-2-ynyl)phenyl]-1H-pyrazol-5-yl}-3-(naphthalen-1-yl)urea] | 0.019
20 | CC(C)(C)c1cc(NC(=O)Nc2ccc(Cl)cc2)n(-c2cccc(CNC(=O)N3CCCC3)c2)n1 [Example 490, 1-(3-t-butyl-1-{3-[(pyrrolidine-1-carboxamido)methyl]phenyl}-1H-pyrazol-5-yl)-3-(4-chlorophenyl)urea] | 0.34

Same assay, conditions: read-out: % Inhibition @ concentration, Table 3; at 0.1 uM

Row | SMILES | inhibition at 0.1 µM [%]
21 | CCOC(=O)Cc1cccc(-n2nc(C(C)(C)C)cc2NC(=O)Nc2ccc3c(c2)OCO3)c1 [Example 399, ethyl 2-(3-{5-[3-(benzo[d][1,3]dioxol-5-yl)ureido]-3-t-butyl-1H-pyrazol-1-yl}phenyl)-acetate] | 21
22 | COc1ccc(-n2nc(C(C)(C)C)cc2NC(=O)Nc2ccccc2F)cc1 [Example 346, 1-[3-t-butyl-1-(4-methoxyphenyl)-1H-pyrazol-5-yl]-3-(2-fluorophenyl)urea] | 19

Same assay, conditions: read-out: % Inhibition @ concentration, Table 3; at 1 uM

Row | SMILES | inhibition at 1 µM [%]
23 | CC(C)(C)c1cc(NC(=O)Nc2cccc3ccccc23)n(-c2cccc(OCCCN3CCS(=O)(=O)CC3)c2)n1 [Example 528, 1-(5-t-butyl-2-{3-[3-(1,1-dioxo-16-thiomorpholin-4-yl)-propoxy]-phenyl}-2H-pyrazol-3-yl)-3-naphthalen-1-yl-urea] | 35
24 | CCOC(=O)COc1ccc(-n2nc(C(C)(C)C)cc2NC(=O)Nc2ccc(Cl)cc2)cc1 [Example 525] | 11
25 | COc1cccc(-n2nc(C(C)(C)C)cc2NC(=O)Nc2ccc(N(C)C)cc2)c1 [Example 323, 1-(3-t-butyl-1-(3-methoxyphenyl)-1H-pyrazol-5-yl)-3-(4-(dimethylamino)phenyl)urea] | 9
26 | Cc1cc(NC(=O)Nc2cccc(Cl)c2Cl)n(-c2ccc(CO)cc2)n1 [Example 450, 1-(2,3-dichlorophenyl)-3-{1-[4-(hydroxymethyl)phenyl]-3-methyl-1H pyrazol-5-yl)urea] | 89
27 | CCOC(=O)Cc1cccc(-n2nc(C(C)(C)C)cc2NC(=O)Nc2ccc3c(c2)OCO3)c1 [Example 399, ethyl 2-(3-{5-[3-(benzo[d][1,3]dioxol-5-yl)ureido]-3-t-butyl-1H-pyrazol-1-yl}phenyl)-acetate] | 74
28 | CCOC(=O)C(C)Cc1cccc(-n2nc(C(C)(C)C)cc2NC(=O)Nc2cccc3ccccc23)c1 (racemic) [Example 200] | 73
29 | COc1ccc(-n2nc(C(C)(C)C)cc2NC(=O)Nc2ccccc2F)cc1 [Example 346, 1-[3-t-butyl-1-(4-methoxyphenyl)-1H-pyrazol-5-yl]-3-(2-fluorophenyl)urea] | 63

Same assay, conditions: read-out: % Inhibition @ concentration, Table 3; at 2 uM

Row | SMILES | inhibition at 2 µM [%]
30 | COc1cccc(NC(=O)Nc2cc(C)nn2-c2cccc(OC)c2)c1 [Example 339, 1-(3-methoxyphenyl)-3-(1-(3-methoxyphenyl)-3-methyl-1H-pyrazol-5-yl)urea] | 9

Same assay, conditions: read-out: % Inhibition @ concentration, Table 3; at 10 uM

Row | SMILES | inhibition at 10 µM [%]
31 | COc1cccc(-n2nc(C)cc2NC(=O)Nc2cccc(Cl)c2)c1 [Example 336, 1-(3-chlorophenyl)-3-(1-(3-methoxyphenyl)-3-methyl-1H-pyrazol-5-yl)urea] | 27
32 | COc1cccc(-n2nc(C)cc2NC(=O)Nc2cccc(Cl)c2Cl)c1 [Example 340, 1-(2,3-dichlorophenyl)-3-(1-(3-methoxyphenyl)-3-methyl-1H-pyrazol-5-yl)urea] | 31
33 | COc1cccc(-n2nc(C(C)(C)C)cc2NC(=O)Nc2ccc(N(C)C)cc2)c1 [Example 323, 1-(3-t-butyl-1-(3-methoxyphenyl)-1H-pyrazol-5-yl)-3-(4-(dimethylamino)phenyl)urea] | 51
34 | COc1cccc(-n2nc(C(C)(C)C)cc2NC(=O)Nc2cccc(N(C)C)c2)c1 [Example 324, 1-(3-t-butyl-1-(3-methoxyphenyl)-1H-pyrazol-5-yl)-3-(3-(dimethylamino)phenyl)urea] | 40
35 | COc1cccc(-n2nc(C(C)(C)C)cc2NC(=O)Nc2cccc(C(F)(F)F)c2)c1 [Example 315, 1-(3-t-butyl-1-(3-methoxyphenyl)-1H-pyrazol-5-yl)-3-(3-(trifluoromethyl)phenyl)urea] | 54
36 | Cc1cc(NC(=O)Nc2cccc(Cl)c2Cl)n(-c2ccc(CO)cc2)n1 [Example 450, 1-(2,3-dichlorophenyl)-3-{1-[4-(hydroxymethyl)phenyl]-3-methyl-1H pyrazol-5-yl)urea] | 192
37 | COc1cccc(NC(=O)Nc2cc(C(C)(C)C)nn2-c2cccc(OC)c2)c1 [Example 326, 1-(3-t-butyl-1-(3-methoxyphenyl)-1H-pyrazol-5-yl)-3-(3-methoxyphenyl)urea] | 41
38 | CCOC(=O)CCc1cccc(-n2nc(C(C)(C)C)cc2NC(=O)Nc2ccc(OC)cc2)c1 [Example 147, 3-(3-{3-t-butyl-5-[3-(4-methoxy-phenyl)-ureido]-pyrazol-1-yl}-phenyl)-propionic acid ethyl ester] | 27
39 | CC(C)(C)c1cc(NC(=O)c2nccc3ccccc23)n(-c2cccc(CCC(=O)O)c2)n1 [Example 150, 3-(3-{3-t-butyl-5-[(isoquinoline-1-carbonyl)-amino]-pyrazol-1-yl}-phenyl)-propionic acid] | 53

Same assay, conditions: read-out: % inhibition @ concentration, Table 2; at 10 uM

Row | SMILES | inhibition at 10 µM [%]
40 | CC(C)(C)c1cc(NC(=O)Nc2cccc3ccccc23)n(-c2cccc(C(=O)N3C(=O)OC[C@@H]3c3ccccc3)c2)n1 [Example 18, L-1-{5-tert-butyl-2-[3-(2-oxo-4-phenyl-oxazolidinyl-3-carbonyl)phenyl]-2H-pyrazol-3-yl}-3-(naphthalen-1-yl)urea] | 60
